Data published in EP0104041B1, “Enzyme inhibitors” (priority 1982, dated 1984).
Non-standard residues stand in square brackets, D forms with d. Residues, ends and D or L forms follow the SMILES beside them. Sta = CC(C)C[C@H](N)[C@@H](O)CC(=O)O

Key:
human renin = target: T1, human renin (Homo sapiens, UniProt P00797); experiment: renin inhibition, methods of the applicants' published European specification (0 045 665); type: biochemical; settings: against human renin
T1 sequence (P00797 67-406): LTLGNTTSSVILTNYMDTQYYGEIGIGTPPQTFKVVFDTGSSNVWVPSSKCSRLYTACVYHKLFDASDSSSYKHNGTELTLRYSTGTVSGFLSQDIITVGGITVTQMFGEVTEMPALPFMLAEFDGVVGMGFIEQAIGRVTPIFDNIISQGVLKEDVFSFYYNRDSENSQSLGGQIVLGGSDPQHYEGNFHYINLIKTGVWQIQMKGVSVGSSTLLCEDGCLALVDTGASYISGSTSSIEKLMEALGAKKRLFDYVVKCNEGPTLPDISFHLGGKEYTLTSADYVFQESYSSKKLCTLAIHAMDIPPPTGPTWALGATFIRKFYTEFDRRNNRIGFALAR
Description: (§1) This compound is the subject of Example 1 below.

baboon renin = experiment: renin inhibition, baboon renin; type: biochemical; settings: against baboon renin; preliminary results
Description: as §1

An IC50 (human renin) of 16 nM was found for `CC[C@H](C)[C@H](NC(=O)[C@@H](NC(=O)C[C@H](O)[C@H](CC(C)C)NC(=O)[C@H](Cc1c[nH]cn1)NC(=O)[C@H](Cc1ccccc1)NC(=O)[C@@H]1CCCN1C(=O)[C@@H](N)Cc1c[nH]cn1)C(C)C)C(=O)N[C@@H](Cc1c[nH]cn1)C(=O)O` [Example 1] (H-HPFH[Sta]VIH-OH) in this work.
An IC50 (human renin; preliminary results) of 9 nM and an IC50 (baboon renin) of 12 nM were found for `CC[C@H](C)[C@H](NC(=O)[C@@H](NC(=O)C[C@H](O)[C@H](CC(C)C)NC(=O)[C@H](Cc1c[nH]cn1)NC(=O)[C@H](Cc1ccccc1)NC(=O)[C@@H]1CCCN1C(=O)[C@H](Cc1c[nH]cn1)NC(=O)[C@@H]1CCCN1)C(C)C)C(=O)N[C@@H](Cc1c[nH]cn1)C(=O)N[C@@H](CCCCN)C(=O)O` [Example H-189] (H-PHPFH[Sta]VIHK-OH) in this work.
